Experiment: Biodistribution in normal mice (dissection, gamma counting)
Format: in vivo
Settings: for % dose/g Blood / % dose/g Body leftover / % dose/g Bone / % dose/g Brain / % dose/g Fat / % dose/g Heart / % dose/g Intestine / % dose/g Kidney / % dose/g Liver / % dose/g Lung / % dose/g Muscle / % dose/g Pancreas / % dose/g Skin / % dose/g Spleen / % dose/g Stomach / % dose/g Tail / % dose/g Testes / % dose/g Thyroid / % dose/g Urogenital / % dose/organ Blood / % dose/organ Body leftover / % dose/organ Bone / % dose/organ Brain / % dose/organ Fat / % dose/organ Heart / % dose/organ Intestine / % dose/organ Kidney / % dose/organ Liver / % dose/organ Lung / % dose/organ Muscle / % dose/organ Pancreas / % dose/organ Skin / % dose/organ Spleen / % dose/organ Stomach / % dose/organ Tail / % dose/organ Testes / % dose/organ Thyroid / % dose/organ Urogenital: AVG
Procedure: While under anesthesia, 0.2 mL of saline solution containing 20 μCi of 3-(3-[18F]-fluoroazetidin-1-yl)-8-methylbenzo[4,5]imidazo[1,2-a]pyridine is injected directly into the tail vein. Three mice are used per time point and sacrificed in a staggered manner. The following organs and fluids are collected: Blood, Spleen, Thyroid, Testes, Heart, Liver, Pancreas, Kidneys, Muscle, Skin, Stomach, Bone, Lungs, Brain, Intestines, Urogenital system. The organs are weighted and the radioactivity of each organ is counted in an Automatic Gamma Counter (Perkin Elmer). For the skin, bone, muscle and blood, a sample is counted and the total weight of the organ or fluid is estimated. A sample of the injected dose is counted as reference. The Percentage Injected Dose per Gram of tissue (% ID/g) is calculated for each organ.

% dose/g Blood (2 minutes): 2.52 % dose/g
% dose/g Body leftover (2 minutes): 2.43 % dose/g
% dose/g Bone (2 minutes): 1.89 % dose/g
% dose/g Brain (2 minutes): 9.53 % dose/g
% dose/g Fat (2 minutes): 1.09 % dose/g
% dose/g Heart (2 minutes): 4.79 % dose/g
% dose/g Intestine (2 minutes): 5.77 % dose/g
% dose/g Kidney (2 minutes): 39.08 % dose/g
% dose/g Liver (2 minutes): 7.32 % dose/g
% dose/g Lung (2 minutes): 26.50 % dose/g
% dose/g Muscle (2 minutes): 1.81 % dose/g
% dose/g Pancreas (2 minutes): 8.74 % dose/g
% dose/g Skin (2 minutes): 0.96 % dose/g
% dose/g Spleen (2 minutes): 10.89 % dose/g
% dose/g Stomach (2 minutes): 4.14 % dose/g
% dose/g Tail (2 minutes): 14.93 % dose/g
% dose/g Testes (2 minutes): 1.78 % dose/g
% dose/g Thyroid (2 minutes): 6.01 % dose/g
% dose/g Urogenital (2 minutes): 4.33 % dose/g
% dose/organ Blood (2 minutes): 4.54 % dose/organ
% dose/organ Body leftover (2 minutes): 38.48 % dose/organ
% dose/organ Bone (2 minutes): 6.87 % dose/organ
% dose/organ Brain (2 minutes): 4.42 % dose/organ
% dose/organ Fat (2 minutes): 0.27 % dose/organ
% dose/organ Heart (2 minutes): 0.72 % dose/organ
% dose/organ Intestine (2 minutes): 15.39 % dose/organ
% dose/organ Kidney (2 minutes): 15.93 % dose/organ
% dose/organ Liver (2 minutes): 11.56 % dose/organ
% dose/organ Lung (2 minutes): 5.18 % dose/organ
% dose/organ Muscle (2 minutes): 19.01 % dose/organ
% dose/organ Pancreas (2 minutes): 1.31 % dose/organ
% dose/organ Skin (2 minutes): 3.74 % dose/organ
% dose/organ Spleen (2 minutes): 1.00 % dose/organ
% dose/organ Stomach (2 minutes): 1.52 % dose/organ
% dose/organ Tail (2 minutes): 10.85 % dose/organ
% dose/organ Testes (2 minutes): 0.30 % dose/organ
% dose/organ Thyroid (2 minutes): 0.10 % dose/organ
% dose/organ Urogenital (2 minutes): 0.75 % dose/organ
% dose/g Blood (30 minutes): 1.14 % dose/g
% dose/g Body leftover (30 minutes): 0.71 % dose/g
% dose/g Bone (30 minutes): 0.93 % dose/g
% dose/g Brain (30 minutes): 0.39 % dose/g
% dose/g Fat (30 minutes): 0.63 % dose/g
% dose/g Heart (30 minutes): 0.76 % dose/g
% dose/g Intestine (30 minutes): 10.09 % dose/g
% dose/g Kidney (30 minutes): 5.98 % dose/g
% dose/g Liver (30 minutes): 2.76 % dose/g
% dose/g Lung (30 minutes): 5.11 % dose/g
% dose/g Muscle (30 minutes): 0.46 % dose/g
% dose/g Pancreas (30 minutes): 1.15 % dose/g
% dose/g Skin (30 minutes): 0.55 % dose/g
% dose/g Spleen (30 minutes): 1.98 % dose/g
% dose/g Stomach (30 minutes): 3.10 % dose/g
% dose/g Tail (30 minutes): 2.77 % dose/g
% dose/g Testes (30 minutes): 1.56 % dose/g
% dose/g Thyroid (30 minutes): 0.81 % dose/g
% dose/g Urogenital (30 minutes): 22.15 % dose/g
% dose/organ Blood (30 minutes): 2.03 % dose/organ
% dose/organ Body leftover (30 minutes): 10.62 % dose/organ
% dose/organ Bone (30 minutes): 3.31 % dose/organ
% dose/organ Brain (30 minutes): 0.17 % dose/organ
% dose/organ Fat (30 minutes): 0.21 % dose/organ
% dose/organ Heart (30 minutes): 0.11 % dose/organ
% dose/organ Intestine (30 minutes): 28.28 % dose/organ
% dose/organ Kidney (30 minutes): 2.56 % dose/organ
% dose/organ Liver (30 minutes): 4.22 % dose/organ
% dose/organ Lung (30 minutes): 0.99 % dose/organ
% dose/organ Muscle (30 minutes): 4.68 % dose/organ
% dose/organ Pancreas (30 minutes): 0.15 % dose/organ
% dose/organ Skin (30 minutes): 2.10 % dose/organ
% dose/organ Spleen (30 minutes): 0.19 % dose/organ
% dose/organ Stomach (30 minutes): 1.80 % dose/organ
% dose/organ Tail (30 minutes): 1.93 % dose/organ
% dose/organ Testes (30 minutes): 0.23 % dose/organ
% dose/organ Thyroid (30 minutes): 0.01 % dose/organ
% dose/organ Urogenital (30 minutes): 3.92 % dose/organ
% dose/g Blood (60 minutes): 0.87 % dose/g
% dose/g Body leftover (60 minutes): 0.54 % dose/g
% dose/g Bone (60 minutes): 0.97 % dose/g
% dose/g Brain (60 minutes): 0.26 % dose/g
% dose/g Fat (60 minutes): 0.27 % dose/g
% dose/g Heart (60 minutes): 0.49 % dose/g
% dose/g Intestine (60 minutes): 15.40 % dose/g
% dose/g Kidney (60 minutes): 4.32 % dose/g
% dose/g Liver (60 minutes): 3.10 % dose/g
% dose/g Lung (60 minutes): 4.01 % dose/g
% dose/g Muscle (60 minutes): 0.31 % dose/g
% dose/g Pancreas (60 minutes): 0.60 % dose/g
% dose/g Skin (60 minutes): 0.36 % dose/g
% dose/g Spleen (60 minutes): 1.15 % dose/g
% dose/g Stomach (60 minutes): 2.78 % dose/g
% dose/g Tail (60 minutes): 2.10 % dose/g
% dose/g Testes (60 minutes): 0.88 % dose/g
% dose/g Thyroid (60 minutes): 0.68 % dose/g
% dose/g Urogenital (60 minutes): 13.95 % dose/g
% dose/organ Blood (60 minutes): 1.63 % dose/organ
% dose/organ Body leftover (60 minutes): 8.64 % dose/organ
% dose/organ Bone (60 minutes): 3.62 % dose/organ
% dose/organ Brain (60 minutes): 0.09 % dose/organ
% dose/organ Fat (60 minutes): 0.12 % dose/organ
% dose/organ Heart (60 minutes): 0.08 % dose/organ
% dose/organ Intestine (60 minutes): 32.10 % dose/organ
% dose/organ Kidney (60 minutes): 1.73 % dose/organ
% dose/organ Liver (60 minutes): 4.73 % dose/organ
% dose/organ Lung (60 minutes): 0.74 % dose/organ
% dose/organ Muscle (60 minutes): 3.30 % dose/organ
% dose/organ Pancreas (60 minutes): 0.13 % dose/organ
% dose/organ Skin (60 minutes): 1.44 % dose/organ
% dose/organ Spleen (60 minutes): 0.12 % dose/organ
% dose/organ Stomach (60 minutes): 3.25 % dose/organ
% dose/organ Tail (60 minutes): 1.35 % dose/organ
% dose/organ Testes (60 minutes): 0.20 % dose/organ
% dose/organ Thyroid (60 minutes): 0.11 % dose/organ
% dose/organ Urogenital (60 minutes): 3.23 % dose/organ
% dose/g Blood (120 minutes): 0.50 % dose/g
% dose/g Body leftover (120 minutes): 0.29 % dose/g
% dose/g Bone (120 minutes): 0.72 % dose/g
% dose/g Brain (120 minutes): 0.23 % dose/g
% dose/g Fat (120 minutes): 0.11 % dose/g
% dose/g Heart (120 minutes): 0.27 % dose/g
% dose/g Intestine (120 minutes): 11.88 % dose/g
% dose/g Kidney (120 minutes): 1.19 % dose/g
% dose/g Liver (120 minutes): 1.35 % dose/g
% dose/g Lung (120 minutes): 2.02 % dose/g
% dose/g Muscle (120 minutes): 0.25 % dose/g
% dose/g Pancreas (120 minutes): 0.23 % dose/g
% dose/g Skin (120 minutes): 0.39 % dose/g
% dose/g Spleen (120 minutes): 0.57 % dose/g
% dose/g Stomach (120 minutes): 0.81 % dose/g
% dose/g Tail (120 minutes): 0.84 % dose/g
% dose/g Testes (120 minutes): 0.31 % dose/g
% dose/g Thyroid (120 minutes): 0.60 % dose/g
% dose/g Urogenital (120 minutes): 30.39 % dose/g
% dose/organ Blood (120 minutes): 0.89 % dose/organ
% dose/organ Body leftover (120 minutes): 4.42 % dose/organ
% dose/organ Bone (120 minutes): 2.50 % dose/organ
% dose/organ Brain (120 minutes): 0.11 % dose/organ
% dose/organ Fat (120 minutes): 0.03 % dose/organ
% dose/organ Heart (120 minutes): 0.04 % dose/organ
% dose/organ Intestine (120 minutes): 32.80 % dose/organ
% dose/organ Kidney (120 minutes): 0.44 % dose/organ
% dose/organ Liver (120 minutes): 1.86 % dose/organ
% dose/organ Lung (120 minutes): 0.37 % dose/organ
% dose/organ Muscle (120 minutes): 2.51 % dose/organ
% dose/organ Pancreas (120 minutes): 0.03 % dose/organ
% dose/organ Skin (120 minutes): 1.46 % dose/organ
% dose/organ Spleen (120 minutes): 0.05 % dose/organ
% dose/organ Stomach (120 minutes): 0.45 % dose/organ
% dose/organ Tail (120 minutes): 0.61 % dose/organ
% dose/organ Testes (120 minutes): 0.05 % dose/organ
% dose/organ Thyroid (120 minutes): 0.06 % dose/organ
% dose/organ Urogenital (120 minutes): 6.52 % dose/organ
clearance from the brain, remaining level (before the 30 min point): less than 10 % of the peak
de-fluorination (radioactivity in bone tissue) (first two hours): do not undergo de-fluorination
uptake by the muscle (over the study period): under 2 % ID/g
SMILES: Cc1ccc2nc3cc(N4CC([18F])C4)ccn3c2c1 [Compound 8, 3-(3-[18F]-fluoroazetidin-1-yl)-8-methylbenzo[4,5]imidazo[1,2-a]pyridine]

Source: patent US10301308B2, “Azetidine derivatives for tau imaging” (Eli Lilly and Company, priority 2015, dated 2019)
